{"source": "patent US20150374755A1", "about": "“Treated Cells and Therapeutic Uses” (NHS BLOOD & TRANSPLANT, priority 2013, published 2015)", "tested_on": "CD4 and CD8 T lymphocytes", "assay": "Suppression of stimulated T cell proliferation (CFSE) by drug pre-incubated MSC", "assay_type": "cell-based, human", "conditions": "MSC pre-incubated with 50 ng/ml; FIG. 6", "method": "MSC derived from (FIG. 1A,E) bone marrow (BM) or (FIG. 1B-D) two independent umbilical cord (UC) preparations (WJ6060:FIG. 1B-C; WJ24-0: FIG. 1D) were incubated with Rapamycin overnight at concentrations from 0.4 to 50 ng/ml, or without drug (control (Ctl)). The MSC were washed, trypsinised, and plated in fresh medium without Rapamycin at 1, 5, and 25 k per well in 96 well plates. After 2-4 hours, human adult peripheral blood mononuclear cells (MNC) labelled with carboxyfluorescein succinimidyl ester (CFSE) were added, and the T lymphocytes therein were stimulated to proliferate with Phytohemagglutinin (PHA) (FIG. 1A-D) or anti-CD3, CD28 activation beads (FIG. 1E). Proliferation levels were determined after 3 days as described in the Methods section. […]\nAfter 3-4 (PHA or bead stimulation) or 5-6 days (allostimulation) the cultures were analysed by flow cytofluorometry after staining for CD3 and CD4, and the CFSE dye-dilution profiles of CD3+CD4+ (CD4) and CD3+CD4- (CD8) lymphocytes were used to calculate proliferation indices (Lyons (2000)). To normalise the level of proliferation between experiments, the proliferation indices were calculated as: (proliferation index for condition X−proliferation index for unstimulated cells)/(proliferation index for PHA or bead stimulated control cells−proliferation index for unstimulated cells). […]"}
{"smiles": "CCC(=O)N1CCN(c2ccc(-n3c(=O)ccc4cnc5ccc(-c6cnc7ccccc7c6)cc5c43)cc2C(F)(F)F)CC1", "note": "[Torin 1]", "values": [{"measurement": "super-suppression by pre-incubated MSC", "result": "no significant super-suppression"}]}
